Test results published in PubChem BioAssay (NCI).
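Interpolation was linear, between the two tested concentrations surrounding the appropriate level; five concentrations were tested over 48 hours in 96-well plates. Abbreviation: GI50, concentration required for 50% inhibition of growth. Definition used: TGI = concentration required for complete inhibition of growth.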

Columns and labels:
Assay in all cases: NCI tumour cell line growth inhibition, 48 h
[1] = tested on: HCT-116 colon
[2] = tested on: A549 NSCLC
[3] = tested on: CCRF-CEM leukemia
[4] = tested on: ACHN renal
[5] = tested on: MDA-MB-435
[6] = tested on: EKVX NSCLC
[7] = tested on: BT-549 breast
[8] = tested on: SR leukemia
[9] = tested on: T-47D breast
[10] = tested on: PC-3 prostate
[11] = tested on: RXF 393 renal
[12] = tested on: SW-620 colon
[13] = tested on: K-562 leukemia
[14] = tested on: NCI-H23 lung
[15] = tested on: UACC-62 melanoma
[16] = tested on: M14 melanoma
[17] = tested on: MALME-3M melanoma
[18] = tested on: SF-295 CNS
[19] = tested on: NCI-H522 lung
[20] = tested on: OVCAR-8 ovarian
[21] = tested on: NCI-H460 lung
[22] = tested on: HCT-15 colon
[23] = tested on: HCC-2998 colon
[24] = tested on: NCI/ADR-RES ovarian
[25] = tested on: KM12 colon
[26] = tested on: MCF7 breast
[27] = tested on: DU-145 prostate
[28] = tested on: HOP-62 NSCLC
[29] = tested on: SF-539 CNS
[30] = tested on: SK-MEL-28 melanoma
[31] = tested on: UACC-257 melanoma
[32] = tested on: TK-10 renal
[33] = tested on: MDA-MB-231 breast
[34] = tested on: A498 renal
[35] = tested on: HT29 colon
[36] = tested on: NCI-H226 lung
[37] = tested on: SNB-19 CNS
[38] = tested on: U251 CNS
[39] = tested on: OVCAR-5 ovarian
[40] = tested on: UO-31 renal
[41] = tested on: SF-268 CNS
[42] = tested on: 786-0 renal
[43] = tested on: HL-60(TB) leukemia
[44] = tested on: COLO 205 colon
[45] = tested on: HOP-92 NSCLC
[46] = tested on: CAKI-1 renal
[47] = tested on: SNB-75 CNS
[48] = tested on: SK-MEL-5 melanoma
[49] = tested on: OVCAR-4 ovarian
[50] = tested on: RPMI-8226 leukemia
[51] = tested on: HS 578T breast
[52] = tested on: SK-MEL-2 melanoma
[53] = tested on: MOLT-4 leukemia
[54] = tested on: SN12C renal
[55] = tested on: IGROV1 ovarian

## CNC(=O)c1c(NC(=O)c2ccccc2C(F)(F)F)sc2c1CCC(=O)C2
[1]
  GI50: 0.384 µM
  TGI: 12.1 µM
[2]
  GI50: 3.28 µM
  TGI: > 100 µM
[3]
  GI50: 0.348 µM
  TGI: > 100 µM
[4]
  GI50: 0.397 µM
  TGI: 2.03 µM
[5]
  GI50: 2.72 µM
  TGI: 11.2 µM
[6]
  GI50: 1.99 µM
  TGI: 37.6 µM
[7]
  GI50: 2.54 µM
  TGI: > 100 µM
[8]
  GI50: 0.538 µM
  TGI: > 100 µM
[9]
  GI50: 0.528 µM
  TGI: 4.98 µM
[10]
  GI50: 0.426 µM
  TGI: 14.6 µM
[11]
  GI50: 1.12 µM
  TGI: 4.2 µM
[12]
  GI50: 0.363 µM
  TGI: 12.2 µM
[13]
  GI50: 0.417 µM
  TGI: > 100 µM
[14]
  GI50: 1.33 µM
  TGI: 7.61 µM
[15]
  GI50: 1.45 µM
  TGI: 3.91 µM
[16]
  GI50: 2.51 µM
  TGI: 33.5 µM
[17]
  GI50: 2.26 µM
  TGI: 6.33 µM
[18]
  GI50: 2.51 µM
  TGI: 7.63 µM
[19]
  GI50: 0.347 µM
  TGI: 2.33 µM
[20]
  GI50: 1.41 µM
  TGI: > 100 µM
[21]
  GI50: 3.27 µM
  TGI: > 100 µM
[22]
  GI50: 0.37 µM
  TGI: 10.5 µM
[23]
  GI50: 2.96 µM
  TGI: 15.2 µM
[24]
  GI50: 1.97 µM
  TGI: 13.4 µM
[25]
  GI50: 4.29 µM
  TGI: 16.8 µM
[26]
  GI50: 1.91 µM
  TGI: 11.9 µM
[27]
  GI50: 4.45 µM
  TGI: > 100 µM
[28]
  GI50: 3.44 µM
  TGI: > 100 µM
[29]
  GI50: 0.678 µM
  TGI: 2.22 µM
[30]
  GI50: 3.59 µM
  TGI: 54.9 µM
[31]
  GI50: 2.76 µM
  TGI: 8.28 µM
[32]
  GI50: 1.54 µM
  TGI: > 100 µM
[33]
  GI50: 2 µM
  TGI: 4.78 µM
[34]
  GI50: 2.09 µM
  TGI: 6.24 µM
[35]
  GI50: 1.45 µM
  TGI: 9.66 µM
[36]
  GI50: 2.46 µM
  TGI: 8.01 µM
[37]
  GI50: 3.18 µM
  TGI: > 100 µM
[38]
  GI50: 0.817 µM
  TGI: > 100 µM
[39]
  GI50: 1.48 µM
  TGI: 5.58 µM
[40]
  GI50: 0.574 µM
  TGI: 1.95 µM
[41]
  GI50: 3.19 µM
  TGI: > 100 µM
[42]
  GI50: 3.8 µM
  TGI: > 100 µM
[43]
  GI50: 0.339 µM
  TGI: 13.4 µM
[44]
  GI50: 1.29 µM
  TGI: 3.12 µM
[45]
  GI50: 1.2 µM
  TGI: 3.39 µM
[46]
  GI50: 0.464 µM
  TGI: 2.55 µM
[47]
  GI50: 1.54 µM
  TGI: 6.82 µM
[48]
  GI50: 1.7 µM
  TGI: 3.72 µM
[49]
  GI50: 1.58 µM
  TGI: 4 µM
[50]
  GI50: 0.278 µM
[51]
  GI50: 3.01 µM
  TGI: > 100 µM
[52]
  GI50: 2.77 µM
  TGI: 7.6 µM
[53]
  GI50: 1.2 µM
  TGI: > 100 µM
[54]
  GI50: 2.9 µM
  TGI: > 100 µM
[55]
  GI50: 1.87 µM
  TGI: 17.8 µM
